Measured values reported in PubChem BioAssay AID1919006 (Molecular Pharmacology Branch, DTP, NCI, 2023).

Tested on: 885512-296-R-J2-PDC complex spheroid growth, % test/control
Test: Anticancer human tumor 885512-296-R-J2-PDC patient-derived breast carcinoma cell line growth inhibition [AhR]
Settings: for IC50: curve of first compound; for viability, T/C: stronger effect = lower value
In short: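 Agents were dosed in half-log steps down from roughly clinical Cmax, or from 10 microM where Cmax was unknown, alone and with AhR antagonists. Read-out: percent test/control growth of tumor spheroids containing HUVEC and MSC stromal cells.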

[1] = second compound 0.1 µM, first compound 0.0316 µM
[2] = second compound 0.1 µM, first compound 0.1 µM
[3] = second compound 0.1 µM, first compound 0.316 µM
[4] = second compound 0.1 µM, first compound 1 µM
[5] = second compound 0.316 µM, first compound 0.0316 µM
[6] = second compound 0.316 µM, first compound 0.1 µM
[7] = second compound 0.316 µM, first compound 0.316 µM
[8] = second compound 0.316 µM, first compound 1 µM
[9] = second compound 1 µM, first compound 0.0316 µM
[10] = second compound 1 µM, first compound 0.1 µM
[11] = second compound 1 µM, first compound 0.316 µM
[12] = second compound 1 µM, first compound 1 µM
[13] = second compound 3.16 µM, first compound 0.0316 µM
[14] = second compound 3.16 µM, first compound 0.1 µM
[15] = second compound 3.16 µM, first compound 0.316 µM
[16] = second compound 3.16 µM, first compound 1 µM
[17] = second compound 10 µM, first compound 0.0316 µM
[18] = second compound 10 µM, first compound 0.1 µM
[19] = second compound 10 µM, first compound 0.316 µM
[20] = second compound 10 µM, first compound 1 µM
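Further: spheroids exposed to compounds for seven days.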

IC50 (second compound 0.1 µM) | IC50 (second compound 0.316 µM) | IC50 (second compound 1 µM) | IC50 (second compound 3.16 µM) | IC50 (second compound 10 µM) | SMILES | viability, T/C [1] | viability, T/C [2] | viability, T/C [3] | viability, T/C [4] | viability, T/C [5] | viability, T/C [6] | viability, T/C [7] | viability, T/C [8] | viability, T/C [9] | viability, T/C [10] | viability, T/C [11] | viability, T/C [12] | viability, T/C [13] | viability, T/C [14] | viability, T/C [15] | other results
43.1 nM | 34.1 nM | 35.1 nM | 29.1 nM | 19.6 nM | CC1COCCN1c1cc(-c2ccnn2C)c2ccnc(-c3ccn[nH]3)c2n1 (stereo not given) + CC(CO)NC(=O)c1cc(-c2ccc(Cl)cc2)nn(-c2cnn(C)c2)c1=O | 67.8% | 10.4% | 3.86% | 2.47% | 54.2% | 10.6% | 3.26% | 2.5% | 53.4% | 10.7% | 2.7% | 2.39% | 47% | 6.94% | 2.32% | viability, T/C (second compound 0.1 µM, first compound 0.00316 µM): 112%; viability, T/C (second compound 0.1 µM, first compound 0.01 µM): 87.6%; viability, T/C (second compound 0.316 µM, first compound 0.00316 µM): 96.6%; viability, T/C (second compound 0.316 µM, first compound 0.01 µM): 84.4%; viability, T/C (second compound 1 µM, first compound 0.00316 µM): 93.4%; viability, T/C (second compound 1 µM, first compound 0.01 µM): 91.7%; viability, T/C (second compound 3.16 µM, first compound 0.00316 µM): 91.2%; viability, T/C (second compound 3.16 µM, first compound 0.01 µM): 87.7%; viability, T/C [16]: 2.05%; viability, T/C (second compound 10 µM, first compound 0.00316 µM): 90.5%; viability, T/C (second compound 10 µM, first compound 0.01 µM): 84.2%; viability, T/C [17]: 25.7%; viability, T/C [18]: 4.34%; viability, T/C [19]: 2.45%; viability, T/C [20]: 2.06%
1680 nM | 1800 nM | 1550 nM | 1140 nM | 671 nM | CC1COCCN1c1cc(C2(S(C)(=N)=O)CC2)nc(-c2ccnc3[nH]ccc23)n1 (stereo not given) + CC(CO)NC(=O)c1cc(-c2ccc(Cl)cc2)nn(-c2cnn(C)c2)c1=O | 102% | 96.4% | 87% | 76% | 95.1% | 102% | 94.2% | 84.4% | 100% | 97% | 99% | 70.3% | 89.4% | 83.5% | 82.8% | viability, T/C (second compound 0.1 µM, first compound 3.16 µM): 19.1%; viability, T/C (second compound 0.1 µM, first compound 10 µM): 5.46%; viability, T/C (second compound 0.316 µM, first compound 3.16 µM): 17.1%; viability, T/C (second compound 0.316 µM, first compound 10 µM): 4.07%; viability, T/C (second compound 1 µM, first compound 3.16 µM): 16.7%; viability, T/C (second compound 1 µM, first compound 10 µM): 5.36%; viability, T/C [16]: 55.1%; viability, T/C (second compound 3.16 µM, first compound 3.16 µM): 11.1%; viability, T/C (second compound 3.16 µM, first compound 10 µM): 4.04%; viability, T/C [17]: 96.9%; viability, T/C [18]: 95.3%; viability, T/C [19]: 72.6%; viability, T/C [20]: 38.3%; viability, T/C (second compound 10 µM, first compound 3.16 µM): 11.3%; viability, T/C (second compound 10 µM, first compound 10 µM): 4.98%
